Assay results published in US10576148B2, “Use of VAP-1 inhibitors for treating fibrotic conditions” (BIOTIE THERAPIES CORP., priority 2009, dated 2020).

Tests used:
ApoE3 Leiden mice = assay: cuff-induced neointimal thickening in femoral artery; type: in vivo, mouse; conditions: for intima media ratio: vs control group; for lumen size (HPS stained vessel segments): vs control group A
Source text: Neointimal and medial thickening is an early and essential stage in the development of atherosclerotic lesions and an essential component of restenosis. It is accompanied by fibrotic changes in the neointima and media of the vascular wall. This study evaluated the role of blocking SSAO in fibrotic disease by evaluating the effect of systemic delivery (by daily ip injection) of a small molecule SSAO inhibitor (mofegiline, BTT-2089) on cuff-induced neointimal thickening (cuff-induced stenosis) in the femoral artery of ApoE3 Leiden mice that received a moderate western type diet.
Methods: 40 male ApoE3*Leiden mice (age 12 weeks) were fed a mildly hypercholesterolemic diet for 3 weeks prior to surgical cuff placement. Treatment was daily ip injections with 1) vehicle; 2) dexamethasone in drinking water at 9 mg/I; 3) daily ip injections of BTT-2089 at 10 mg/kg; 4) BTT-2089 at 30 mg/kg, all started one day prior to surgery and continued during the experimental period. At day 0 surgery was performed, i.e. a non-constricting cuff (2-3 mm in length) was placed around both femoral arteries of the mice. 10 mice of each group were sacrificed after 2 weeks for histomorphometric analysis to quantify the inhibition of accelerated atherosclerotic lesions and neointima formation. […] This was reflected in the increased lumen size in examples of HPS stained vessel segments in SSAO inhibitor treated groups when compared to a control group (FIG. 12).
A second study, in the same model, was performed with another SSAO inhibitor from a chemical class distinct from BTT-2089. This hydrazine based inhibitor (BTT-2079) was dosed at a level of 10 mg/kg by daily i.p injection and compared with BTT-2089 at 30 mg/kg. In all other respects the study was performed in the same manner except that the dexamethasone control group was omitted. […] Vascular integrity was not affected.

C57BL/6J mice = assay: tobacco smoke induced mouse model of COPD, BAL cell counts; type: in vivo; conditions: for reduction of total number of cells in BAL: 5 mg/kg orally once daily 11 days, 1 h prior to TS
Experimental: C57BL/6J mice were exposed once daily to tobacco smoke (TS) for 11 consecutive days resulting in pulmonary inflammation 24 hours following the final TS exposure. After 11 days the response comprised of significant increases in macrophages, epithelial cells, eosinophils, neutrophils and lymphocytes.
Mice were randomly divided into study groups (n=10) and treated with a vehicle (5 ml/kg PBS pH 7.4+0.1% Polysorbate 80) or mouse monoclonal anti-VAP-1 antibody (3 mg/kg or 9 mg/kg BTT-1029 in the vehicle) intravenously on Days −1, 3, 6, and 9 at 4 h post TS exposure. Another group (n=10) received the vehicle intravenously and was exposed to air for an equivalent length of time. Two further groups of mice (n=10) received another vehicle (0.5% carboxymethylcellulose, sodium salt (CMC) in sterile water) or a reference compound (5 mg/kg Roflumilast in 0.5% CMC) orally once a day for 11 consecutive days at 1 h prior to each TS exposure. A final group (n=10) received the oral vehicle (0.5% CMC) and was exposed to air for an equivalent length of time.
All results were presented as individual data points for each animal and the mean value calculated for each group. Where tests for normality were positive the data initially was subjected to a one way analysis of variance test (ANOVA), followed by a Bonferroni correction for multiple comparisons in order to test for significance between treatment groups. A “p” value of ≤0.05 was considered to be statistically significant.
All data was also subjected to the Bartlets test for equal variances and for the majority of studies variances were generally equal, however as occurred in this study, occasionally some treatment groups would give a positive result. Non parametric analyses were therefore also used. As the data was normally distributed, parametric analyses (ANOVA) were quoted.
Percentage inhibitions were automatically calculated within the Excel spreadsheets for the cell data using the formula below: […]

[1] = second study, 10 mg/kg i.p. daily
[2] = first study, 10 mg/kg ip daily, 2 weeks, vs NaCl 0.9% control
[3] = first study, 30 mg/kg ip daily, 2 weeks, vs NaCl 0.9% control
[4] = second study, 30 mg/kg i.p. daily

CN(N)[C@H](c1ccccc1)[C@@H](O)c1ccccc1 [BTT-2079, (1S,2R)-2-(1-methylhydrazino)-1,2-diphenylethanol] was tested, and the lumen area (ApoE3 Leiden mice; [1]) was “No significant changes”, the media area (ApoE3 Leiden mice; [1]) was “No significant changes” and the neointima formation (ApoE3 Leiden mice; [1]) was “significant reduction”. For the same compound, the percentage lumen stenosis (ApoE3 Leiden mice; [1]) was “only significantly less in the BTT-2089 30 mg/kg group”, the vascular integrity (ApoE3 Leiden mice; [1]) was “not affected” and the vessel wall diameter (ApoE3 Leiden mice; [1]) was “No significant changes”. The intima media ratio (ApoE3 Leiden mice; [1]) was “significantly less”.
With NC/C(=C/F)CCc1ccc(F)cc1 [BTT-2089, (E)-2-(4-fluorophenethyl)-3-fluoroallylamine] the media formation (ApoE3 Leiden mice; [2]) was “significant reduction”, the neointima formation (ApoE3 Leiden mice; [2]) was “significant reduction” and the “lumen size (HPS stained vessel segments)” value (ApoE3 Leiden mice; first study, 10 mg/kg) was “increased”. For the same compound, the media formation (ApoE3 Leiden mice; [3]) was “significant reduction”, the neointima formation (ApoE3 Leiden mice; [3]) was “significant reduction” and the “lumen size (HPS stained vessel segments)” value (ApoE3 Leiden mice; first study, 30 mg/kg) was “increased”. The lumen area (ApoE3 Leiden mice; [4]) was “No significant changes”, the media area (ApoE3 Leiden mice; [4]) was “No significant changes” and the neointima formation (ApoE3 Leiden mice; [4]) was “significant reduction”. For the same compound, the percentage lumen stenosis (ApoE3 Leiden mice; [4]) was “significant reduction”, the vascular integrity (ApoE3 Leiden mice; [4]) was “not affected” and the vessel wall diameter (ApoE3 Leiden mice; [4]) was “No significant changes”. The intima media ratio (ApoE3 Leiden mice; [4]) was “significantly less”.
In the case of O=C(Nc1c(Cl)cncc1Cl)c1ccc(OC(F)F)c(OCC2CC2)c1 [Roflumilast], the “number of eosinophils in BAL” value (C57BL/6J mice; 5 mg/kg orally once daily) is reported as “did not significantly reduce”, the “number of macrophages in BAL” value (C57BL/6J mice; 5 mg/kg orally once daily) is reported as “did not significantly reduce” and the “reduction of epithelial cells in BAL” value (C57BL/6J mice; 5 mg/kg orally once daily) is reported as 51%. The “reduction of lymphocytes in BAL” value (C57BL/6J mice; 5 mg/kg orally once daily) was 65%, the “reduction of neutrophils in BAL” value (C57BL/6J mice; 5 mg/kg orally once daily) was 63% and the “reduction of total number of cells in BAL” value (C57BL/6J mice) was 41%. For the same compound, the “reduction of total number of cells in BAL” value (C57BL/6J mice; listed as roflumilast) was “reduction”.
